Experimental data reported in patent publication US20040167226A1, “Methods for the treatment of pain and traumatic injury using benzamides and compositions containing the same” (priority 2002, published 2004).

Columns and labels:
[1] = Brain-blood distribution of Compound A in the rat; format: in vivo; conditions: brain / whole blood, single po dose 30 mg/kg, n = 5, read-out: Brain/Blood Ratio (Mean ± SD)
Procedure: Blood-brain distribution of Compound A was assessed in the mouse, rat, and squirrel monkey by determining the concentrations of Compound A in blood and brain tissue at specific times post dose. Rats and mice received a single po dose of 30 mg/kg. The monkeys received a twice-daily 10 mg/kg po dose of Compound A for a total of 5 weeks prior to sacrifice. Brain to blood ratios for Compound A, as shown below in Table 4, show high penetration of the blood-brain barrier.

[2] = test system: Taxol-induced mechanical allodynia; experiment: Taxol-induced neuropathic pain rat model, 50% paw withdrawal threshold (up-down method); format: in vivo, Sprague-Dawley rats; conditions: rats
Excerpt: Sprague-Dawley male rats with 150-160 grams of body weight were used in the studies presented herein. Rats were trained in the enclosure one hour per day in the morning for a one week period prior to obtaining the baseline response. Whereas the mouse studies assessed percentage of response, the rat studies determined 50% of the paw withdrawal threshold, also called the up-down method as developed by Chung and colleagues. In order to obtain consistent data, naïve rats with paw withdrawal threshold no less than 4 grams were included for further studies. Taxol at a dose of 1 mg/kg (body weight) was administered daily to rats intraperitoneally. As observed in mice, the rats treated with Taxol daily developed stable mechanical allodynia on day 9 and thereafter. On day 13 and day 14 of Taxol induction, the rats pain behavior in term of 50% of paw withdrawal threshold was measured. Only those rats with paw withdrawal threshold measurements no greater than 7 grams for two consecutive days were included for drug testing. Generally speaking, the mechanical allodynia in Taxol treated rats fell in the range of 1-4 gram of paw withdrawal threshold.
1 ml per kg of body weight of either 50 mg/ml or 20 mg/ml of Compound A was administered to rats via oral gavage feeding (p.o.), to yield a dose of either 50 mg/Kg (body weight) or 20 mg/Kg (body weight). The same corresponding volume of 1% methylcellulose was used as vehicle control. 34 male Sprague-Dawely rats were employed for the study. The baseline paw withdrawal threshold (grams of force applied to the plantar area of the right hind paw) and neuropathic pain induction with daily intraperitoneal administration of 1 mg/kg (body weight) was performed as indicated in the previous section. The Taxol treatment was continued for 15 days until the pain threshold remained relatively stable. Animals with baseline greater than 4 grams and with threshold […] post induction were included in the drug testing. 27 rats met the criteria for the next step studies and were randomly assigned into four groups. Group 1 consisting of 7 rats was given 1% methylcellulose as vehicle control group, 1 ml of vehicle per kilograms of body weight was administered to animal via p.o.; group 2 with 6 animals was dosed at 20 mg/kg (body weight) of Compound A via oral gavage feeding (p.o.); group 3 with 7 rats was dosed at 50 mg/kg of Compound A, and the fourth group with 7 rats received Gabapentine at 50 mg/kg via p.o. in the same vehicle as a positive control group. Those rats were habituated in the enclosure and 50% of paw withdrawal thresholds (grams of force) were measured using a set of von Frey filaments, as described in the previous section, at time points of 1, 2, 3, 6, and 24 hours postdosing in a blinded fashion. The tester had no knowledge of which animals received drug or vehicle. It was noted that rats tested were very sleepy in the late afternoon (for 6 hour postdosing measurement), thus the data would not be reliable for 6-hour postdosing time points. […] After finishing the 24 hour postdosing measurement, the paw withdrawal threshold of each animal was calculated and data was analyzed.

[3] = test system: neurofilament (nerve fiber density); experiment: Immunohistochemistry of neurofilament on transverse spinal cord sections; format: in vivo; conditions: rats after spinal cord injury; anti-neurofilament staining; sections rostral and caudal to epicenter
Procedure: (§1) Compound A was tested in both the rat dorsal hemisection (Guth, L. et al. (1980), J. Neurosurgery 52: 73-86) and contusion models (Scheff, S. W. (2003), J. Neurotrauma 20: 179-193) for evaluation of efficacy. These models are widely used in the field of spinal cord injury and replicate many of the pathological aspects found in humans who have sustained a spinal cord injury. Rats were subjected to an experimental spinal cord injury at T8, and were given Compound A shortly thereafter. Behavioral tests to assess the locomotion deficits were performed after the lesion. At the end of the experiment, animals were sacrificed and the spinal cord was collected for histopathological analysis. […] Histological assessment of the tissue at the site of injury was also made in both the drug treated and untreated group. In particular, subsequent to the behavioral measurement, spinal cord tissue from each animal was obtained and serial transverse tissue sections were stained with either anti-neurofilament antibody or antibodies specific for the inflammatory markers, tumor necrosis factor alpha (TNFα) and for the inducible form of nitric oxide synthetase (iNOS), followed by incubation with Alexa Fluor®-conjugated secondary antibodies.

TNFα = experiment: Immunohistochemistry for inflammatory marker TNFα on contused spinal cord; format: in vivo; conditions: rats after contusion injury; 72 h post-injury, 1 mm caudal to epicenter
Procedure: as §1
Histological assessment of the tissue at the site of injury was also made in both the drug treated and untreated group. […]

[4] = PK parameter estimates, 30 mg/kg po in 1% methyl cellulose; format: in vivo, rats
Excerpt: The time course of plasma concentration of compound N is depicted in FIG. 1 as well.

[5] = 20 mg/kg p.o. in 1% methylcellulose
[6] = rat, plasma, rats, 30 mg/kg po in 1% methyl cellulose, n = 3

Q: Which Kp at 0.5 h ([1]; 0.5 h post-dose) does the source give for `CC(=O)Nc1ccc(C(=O)NC(C)(C)C)cc1` [Compound A, N-tert-butyl-4-acetamidobenzamide] here?
A: The Kp at 0.5 h was 0.71 ± 0.03.

Q: What about the Kp at 1 h ([1]; 1.0 h post-dose) of the same compound?
A: The Kp at 1 h was 0.66 ± 0.02.

Q: What about the Kp at 2 h ([1]; 2.0 h post-dose) of the same compound?
A: The Kp at 2 h was 0.67 ± 0.03.

Q: What about the “analgesic effect on neuropathic pain (in words)” value [2, 5] of the same compound?
A: Its value is “has an analgesic effect”.

Q: What about the “onset of analgesic effect” value [2, 5] of the same compound?
A: The value was “fast onset (one-hour postdosing)”.

Q: What about the “time of peak analgesic effect postdosing” value [2, 5] of the same compound?
A: Its value is 2 h.

Q: What about the paw withdrawal threshold ([2]; 20 mg/kg p.o. in 1% methylcellulose, vehicle about 4 grams) of the same compound?
A: Its paw withdrawal threshold is “greater than 7 grams”.

Q: And the “pain blocking effect (in words)” value ([2]; 50 mg/kg p.o. in 1% methylcellulose)?
A: Its value is “showed a pain blocking effect at 1 hour postdosing, with the effect diminished later on”.

Q: What about the “analgesic effect compared with positive control” value ([2]; Compound A 20 mg/kg p.o. vs Gabapentine 50 mg/kg p.o.) of the same compound?
A: The value was “comparable to the positive control”.

Q: And the “nerve fiber density in spinal cord tissue vs vehicle control” value [3]?
A: Its value is “significantly higher nerve fiber density”.

Q: And the “inflammatory marker TNFα in the region of the corticospinal tract vs untreated control” value (TNFα)?
A: Its value is “decreased”.

Q: And the “bioavailability (in words)” value ([4]; additional series of bioavailability experiments)?
A: The value was “excellent bioavailability”.

Q: What about the AUC(0-inf) [4, 6] of the same compound?
A: Its AUC(0-inf) is 745 µg·h/mL.

Q: What about the Cmax [4, 6] of the same compound?
A: The Cmax was 34000 ng/mL.

Q: And the Tmax [4, 6]?
A: Its Tmax is 8 h.

Q: And the half-life ([4]; rat, plasma, rats, 30 mg/kg po in 1% methyl cellulose, n = 3, read-out: Elim.t1/2 (converted))?
A: The half-life was 11 h.
